According to US10414983B2, “Curved liquid crystal display” (SAMSUNG DISPLAY CO., LTD., priority 2017, dated 2019):

Assay: Adsorption force of the first compound
Format: physicochemical
Parameters: unit not given here
Settings: adsorption to pixel electrode; unit not given; larger absolute value = stronger adsorption
Excerpt: Next, a physical characteristic of the first compound according to an example embodiment obtained as above-described and a comparative example are compared.
As described in Table 2, solubility and adsorption force of the first compound according to Examples 1 to 7 and the Comparative Example are described.
Referring to Table 2, in the case of the first compound according to an example embodiment, it is confirmed that the solubility is the same level as or higher than the comparative example. Also, it may be confirmed that an absolute value of the adsorption force of the first compound is the same level as or higher than the comparative example. Accordingly, the first compound may be easily absorbed to the pixel electrode, thereby it may be confirmed that the solubility is excellent when being injected to the liquid crystal material and the first compound is easily injected along with the liquid crystal material.

Adsorption force | SMILES
−0.40 | C=CC(=O)OCCOc1c(F)cc(-c2ccc(OCCOC(=O)CCOC3CCOCC3)cc2)cc1F [Example 4]
−0.45 | C=CC(=O)OCCOc1c(F)cc(-c2ccc(OCCOC(=O)CCOCc3ccoc3)cc2)cc1F [Example 5]
−0.51 | C=CC(=O)OCCOc1c(F)cc(-c2ccc(OCCOC(=O)CCOCc3cccnn3)cc2)cc1F [Example 6]
−0.53 | C=CC(=O)OCCOc1c(F)cc(-c2ccc(OCCOC(=O)CCOCc3ccon3)cc2)cc1F [Example 7]

Further lines, the compound ahead of its results:

SMILES | Adsorption force
C=C(C)C(=O)OCCCc1cc(-c2ccccc2CC)cc(CCCOC(=O)C(=C)C)c1OCCCCCc1ccc(OCCCCCO)cc1 [Comparative Example, reference compound] | −0.49
C=C(CCN(CCO)CCO)Oc1ccc(C(=O)c2ccc(OC(=O)C(=C)C)cc2)cc1 [Example 1] | −1.27
C=C(C)C(=O)OCCCCCOc1ccc(C(=O)c2ccc(OCCCCCCOC(=O)CCN(CCO)CCO)cc2)cc1 [Example 2] | −1.34
C=C(C)C(=O)OCCCCCOc1c(F)cc(-c2ccc(OCCCCCCOC(=O)CCN(CCC)CCO)cc2)cc1F [Example 3] | −0.99
